Consider four compounds from publication PMC12645191, “Dicarboxylate and dicarboxylic acid appended supramolecular self-associating amphiphiles as antimicrobial agents against high priority bacterial pathogens” (Organic & Biomolecular Chemistry, 2025).

Data set [1] can be described thus: metabolic stability in liver microsomes. In kind it is in vitro ADME, mouse. As to conditions: for microsomal CLint at 1 µM: read-out: in vitro CLint; for half-life at 1 µM: read-out: in vitro t1/2; for CLint scaled at 1 µM: liver microsomes, read-out: Scale-up CLint. The method, then: Metabolic stability was assessed in mouse and rat liver microsomes. Microsomes are subcellular fractions of hepatocytes and contain CYP450s, the predominant enzymes involved in first-pass metabolism.[66] […] A plasma protein binding assay was performed to assess the extent of compound binding to plasma proteins. This is key as only unbound compound is free to distribute and exert a pharmacological effect. […] To assess the potential for this sub-class of SSAs to be developed as drugs for oral administration, Caco-2 permeability assays were also performed, as a cellular model indicative of human intestinal permeability.
Section 3: Biological methods […]
In vitro Absorption, Distribution and Metabolism
These studies were performed by Contract Research Organisation (CRO) Pharmaron. The methodology provided within the ESI is published within the express permission of this organisation. The percentage of a compound recovered during the analysis process should be 100 %; any deviation from this value indicates experimental limitations such as unintended potential non-specific binding events to experimental equipment, solubility issues, etc.
Metabolic Stability in Rat and Mouse Liver Microsomes:
The metabolic stability of compounds at a concentration of 1 µM, in rat and mouse liver […]
/ mL) in the presence and absence of cofactor (NADPH) at 37 °C. Aliquots of each incubation were removed at 0.5, 5, 15, 30 and 60 minutes. The reaction was stopped by the addition of 5 volumes of cold acetonitrile containing analytical internal standard (IS).
Samples were then centrifuged at 3 °C, 220 g for 40 minutes to remove cell debris. The supernatant was aliquoted and added to ultra-pure H2O in a 1:1 ratio in preparation for LC- […]
Samples were analysed using a Shimadzu liquid chromatography system coupled to a Triple Quad 6500+ mass spectrometry (AB Inc.) Separation of compounds was achieved using an HSS T3 column (50 x 2.1 mm) at a temperature of 40 °C and a binary mobile phase gradient […]
at a flow rate of 0.7 mL/min. […]
acid in water) and 5 % solvent B (0.1 % formic acid in acetonitrile). […]
solvent B at 0.7 minutes, held for 0.5 minutes and then immedi ately returned to initial conditions. Sample analysis was by electrospray ionisation. […]

Data set [2] is described as follows: protein binding in human plasma by equilibrium dialysis. The class given is in vitro ADME. As to conditions: human plasma, 5 µM, 37 °C; for recovery at 6 h, 5 µM / remaining at 6 h, 5 µM / fraction unbound at 6 h, 5 µM: human; for remaining at 6 h, 5 µM / fraction unbound at 6 h, 5 µM: plasma. The method, then:
Metabolic stability was assessed in mouse and rat liver microsomes. […] A plasma protein binding assay was performed to assess the extent of compound binding to plasma proteins. This is key as only unbound compound is free to distribute and exert a pharmacological effect. […] To assess the potential for this sub-class of SSAs to be developed as drugs for oral administration, Caco-2 permeability assays were also performed, as a cellular model indicative of human intestinal permeability. […] The […] MS/MS analysis. Samples were analysed using a Shimadzu liquid chromatography system coupled to a Triple Quad 6500+ mass spectrometry (AB Inc.) Separation of compounds was achieved using an HSS T3 column (50 x 2.1 mm) at a temperature of 40 °C and a binary mobile phase gradient at a flow rate of 0.7 mL/min. […] This was ramped to 95 % solvent B at 0.7 minutes, held for 0.5 minutes and then […] returned to initial conditions. Sample analysis was by electrospray ionisation. Protein Binding Measurements in Human Plasma by Using Equilibrium Dialysis Method : The fraction unbound in human plasma (P -KB, Ltd People's hospital of Shandong) were measured using 96-well Equilibrium Dialysis Plate (HTDialysis LLC, Gales Ferry, CT). Human plasma containing 5 μM test compound were dialysed against dialysis buffer (PBS) with initial samples taken to allow for assessment of plasma stability and recovery before the plate was incubated for 6 hours at 37 °C at 5 % CO2. Samples were removed at 6 hours, and all samples […] appropriate analytical internal standard. Samples were centrifuged at 3,220 g for 30 minutes (Eppendorf 5810R) to precipitate protein and enable sampling of supernatant prior to appropriate dilution for liquid chromatography mass -spectrometry (LC-MS/MS) analysis. Samples were analysed using a Shimadzu coupled to a triple Quad 6500 + (AB Inc., Illinois). Separation of analytes was achieved using a Xselect Hss T3 (2.1 x 50 mm) column at a temperature of 40 °C and a binary mobile phase gra dient at a flow rate of 0.8 mL/min. Initial […] formic acid in acetonitrile); this was ramped to 98 % B at 0.5 min, held for 0.4 min and then immediately returned to initial conditions. Sample analysis was by electrospray ionisation in positive ion mode. Bi-directional Permeability in Caco-2 Cell Line: The bi-directional permeability in Caco-2 cell lines was determined by seeding cells onto an HTS Transwell plate. Cells were cultivated for 14-18 days in a cell culture incubator at 37 °C, 5 % CO2, 95 % relative humidity. Cell culture medium was replaced every other day. To assess monolayer integrity the transepithelial electrical resistance (TEER) across the monolayer was measured using Millicell Epithelial volt-ohm meter prior to assay and Lucifer yellow (LY) fluorescence measurement post-assay. Test and control compounds were prepared in DMSO and diluted in Hank's Balanced Saline […] Compound was added to the donor compartment of the transwell plate for both apical to basolateral (A>B) and basolateral to apical (B>A) measurements, with blank HBSS being added to the receiver compartment. The transwell plate was then incubated at 37 °C, 5 % CO2 for 2 hours. 5
A general note: In equilibrium dialysis only unbound substance equilibrates across the membrane.

Setting [3] is: mouse liver microsomes, 1 µM, 0.5 mg protein/mL.
Where [4] appears, read: 6 hours, read-out: % Bound (converted).

Read-outs that look alike come from different tables or passages of the source.

As to `O=C(O)CC[C@H](NC(=O)Nc1ccc(Br)cc1)C(=O)O` [SSA 9], the “Hepatic Extraction Ratio (ER)” value in data set [1] (mouse) is under 0.26. Also, the “Predicted Hepatic CLH” value in data set [1] (mouse) was under 23.07 mL/min/kg. Further, in data set [1] (setting [3]), the microsomal CLint at 1 µM was under 7.5 µL/min/mg. Besides, the half-life at 1 µM in data set [1] (setting [3]) is over 185 min. The Remaining percentage in data set [1] (mouse, +Cofactors, 0.5 min) is listed as 100.00%; in data set [1] (mouse, +Cofactors, 5 min) it was 101.88%; in data set [1] (mouse, +Cofactors, 15 min), 100.09%; in data set [1] (mouse, +Cofactors, 30 min) it was 97.61%; in data set [1] (mouse, +Cofactors, 60 min), 103.16%; in data set [1] (mouse, -Cofactors, 0.5 min), 100.00%. In addition, in data set [1] (mouse, -Cofactors, 60 min), the Remaining percentage is reported as 103.83%. In addition, the CLint scaled at 1 µM in data set [1] (mouse) was under 31 mL/min/kg. This compound also gave a recovery at 6 h, 5 µM in data set [2] (6 hours) of 94.9%. Also, the share remaining at 6 h, 5 µM in data set [2] stood at 106%. The fraction unbound at 6 h, 5 µM is 0.166 in data set [2] (setting [4]) and 0.166 in data set [2] (6 hours, read-out: % Unbound).
With `O=C(O)CC[C@H](NC(=O)Nc1ccc(C(F)(F)F)cc1)C(=O)O` [SSA 1], the “Hepatic Extraction Ratio (ER)” value in data set [1] (mouse) is recorded as under 0.26. Also, the “Predicted Hepatic CLH” value in data set [1] (mouse) was under 23.07 mL/min/kg. In data set [1] (setting [3]), the microsomal CLint at 1 µM is under 7.5 µL/min/mg. Further, the half-life at 1 µM in data set [1] (setting [3]) was over 185 min. The Remaining percentage in data set [1] (mouse, +Cofactors, 0.5 min) stood at 100.00%; in data set [1] (mouse, +Cofactors, 5 min), 100.09%; in data set [1] (mouse, +Cofactors, 15 min), 98.69%; in data set [1] (mouse, +Cofactors, 30 min) it was 98.11%; in data set [1] (mouse, +Cofactors, 60 min), 105.07%; in data set [1] (mouse, -Cofactors, 0.5 min) it was 100.00%. In data set [1] (mouse, -Cofactors, 60 min), this compound gave a Remaining percentage of 103.10%. Besides, the CLint scaled at 1 µM in data set [1] (mouse) was under 31 mL/min/kg. The compound also registered a recovery at 6 h, 5 µM in data set [2] (6 hours) of 97.3%. The fraction remaining at 6 h, 5 µM in data set [2] is 104%. For the same compound, the fraction unbound at 6 h, 5 µM in data set [2] (setting [4]) is 0.217; in data set [2] (6 hours, read-out: % Unbound), 0.217.
`O=C(O)CC[C@H](NC(=O)Nc1ccc(C(F)(F)F)cc1)C(=O)O` [SSA 2]: in data set [1] (mouse), the “Hepatic Extraction Ratio (ER)” value was under 0.26. Moreover, in data set [1] (mouse), the “Predicted Hepatic CLH” value is under 23.07 mL/min/kg. Also, the “Scale-up CLint” value in data set [1] (mouse) was under 31.02 mL/min/kg. Further, the “in vitro CLint” value in data set [1] (setting [3]) is under 7.50 µL/min/mg. The “in vitro t1/2” value in data set [1] (setting [3]) was over 184.78 min. The Remaining percentage amounted to 100.00% in data set [1] (mouse, +Cofactors, 0.5 min); 101.97% in data set [1] (mouse, +Cofactors, 5 min); 102.46% in data set [1] (mouse, +Cofactors, 15 min); 101.55% in data set [1] (mouse, +Cofactors, 30 min); 102.31% in data set [1] (mouse, +Cofactors, 60 min); 100.00% in data set [1] (mouse, -Cofactors, 0.5 min). The compound further returned a Remaining percentage in data set [1] (mouse, -Cofactors, 60 min) of 102.89%. The “% Remaining at 6 hr” value in data set [2] amounted to 108.64%. The “% Bound” value in data set [2] (6 hours) came out at 78.73%. Also, in data set [2] (6 hours), the “% Recovery” value stood at 97.50%. Moreover, the “% Unbound” value in data set [2] (6 hours) turned out to be 21.27%.
Consider `O=C(O)CC[C@@H](NC(=O)Nc1ccc(C(F)(F)F)cc1)C(=O)O` [SSA 3], for which the “Hepatic Extraction Ratio (ER)” value in data set [1] (mouse) was under 0.26. Moreover, the “Predicted Hepatic CLH” value in data set [1] (mouse) was under 23.07 mL/min/kg. Moreover, in data set [1] (setting [3]), the microsomal CLint at 1 µM was under 7.5 µL/min/mg. Besides, the half-life at 1 µM in data set [1] (setting [3]) is over 185 min. Besides, the Remaining percentage is given as 100.00% in data set [1] (mouse, +Cofactors, 0.5 min); 99.16% in data set [1] (mouse, +Cofactors, 5 min); 100.05% in data set [1] (mouse, +Cofactors, 15 min); 98.24% in data set [1] (mouse, +Cofactors, 30 min); 98.27% in data set [1] (mouse, +Cofactors, 60 min); 100.00% in data set [1] (mouse, -Cofactors, 0.5 min). The same compound came in with a Remaining percentage in data set [1] (mouse, -Cofactors, 60 min) of 93.98%. For the same compound, in data set [1] (mouse), the CLint scaled at 1 µM was under 31 mL/min/kg. Further, the recovery at 6 h, 5 µM in data set [2] (6 hours) came out at 99.6%. Also, in data set [2], the amount remaining at 6 h, 5 µM is 102%. For the same compound, the fraction unbound at 6 h, 5 µM is 0.23 in data set [2] (setting [4]) and 0.23 in data set [2] (6 hours, read-out: % Unbound).
